According to patent US6228870A, “Oxazolidinones useful as alpha 1a adrenoceptor antagonists” (Merck & Co., Inc., priority 1999, dated 2001):

Tested on: human alpha 1b adrenergic receptor
Assay: Selective Binding Assay, alpha 1b (competition with [125I]-HEAT)
Conditions: alpha 1a versus alpha 1b
Experimental: Membranes prepared from stably transfected human alpha 1d and alpha 1b cell lines (ATCC […] and CRL 11139, respectively) were used to identify compounds that selectively bind to the human alpha 1a adrenergic receptor. These competition binding) reactions (total volume=200 μl) contained 50 mM Tris-HCl pH. 7.4, 5 mM EDTA, 150 mM NaCl, 100 pM [^125 I]-HEAT, membranes prepared from cell lines transfected with the respective alpha 1 subtype expression plasmid and increasing amounts of unlabeled ligand. Reactions were incubated at room temperature for one hour with shaking. Reactions were filtered onto Whatman GF/C glass fiber filters with a Inotec 96 well cell harvester. Filters were washed three times with ice cold buffer and bound radioactivity was determined (Ki).

selectivity in binding to alpha 1a receptors versus alpha 1b receptors	Compound
about 184 fold	COC[C@@H]1OC(=O)N(C(=O)NCCCN2CCC(c3ccccc3C#N)CC2)[C@H]1c1ccc(F)c(F)c1 [Example 11, (4S,5R)-4-(3,4-Difluorophenyl)-5-methoxymethyl-2-oxo-oxazolidine-3-carboxylic acid {3-[4-(2-cyanophenyl)piperidin-1-yl]propyl}amide]
about 453 fold	COC[C@@H]1OC(=O)N(C(=O)NCCCN2CCC(c3ccc(F)cc3C#N)CC2)[C@H]1c1ccc(F)c(F)c1 [Example 13, (4S,5R)-4-(3,4-Difluorophenyl)-5-methoxymethyl-2-oxo-oxazolidine-3-carboxylic acid {3-[4-(2-cyano-4-fluorophenyl)piperidin-1-yl]propyl}amide]
